This assay has as its system rat small-intestinal brush border membrane vesicles. The assay can be described thus: Inhibitory effect on 33PO4 uptake into rat small-intestinal brush border membrane vesicles (rapid filtration method). Format: biochemical, Wistar female rat. The note with it: 1 µM test compound; 33PO4 uptake into rat small-intestinal BBMVs, 60 seconds. In outline: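 Uptake was terminated by ice-cold 110 mM NaCl, 1 mM KH2PO4, 10 mM HEPES (pH 7.5) buffer and immediate suction filtration, then washing. Using rat small-intestinal BBMVs, retained 33PO4 was quantified by liquid scintillation counting as transport activity.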
In the case of `CN1N(Cc2ccc(C#CCN3CCOCC3)c(F)c2F)C(=O)C(C(=O)Nc2ccc(Cl)cc2-c2cc(C(F)(F)F)ncn2)=C(O)C1(C)C` [Example 316, N-[4-Chloro-2-[6-(trifluoromethyl)pyrimidin-4-yl]phenyl]-2-[[2,3-difluoro-4-(3-morpholin-4-ylprop-1-ynil)phenyl]methyl]-5-hydroxy-1,6,6-trimethyl-3-oxopyridazine-4-carboxamide], the “Rate of uptake inhibition (%) (1 µM)” value is recorded as 64%. As for `C[C@]12CCCN1N(Cc1ccc(C#CCCCCC(=O)O)c(F)c1F)C(=O)C(C(=O)Nc1ccc(C(F)(F)F)cc1-c1cncc(C(F)(F)F)c1)=C2O` [Example 119, 7-[4-[[(4aR)4-Hydroxy-4a-methyl-2-oxo-3-[[4-(trifluoromethyl)-2-[5-(trifluoromethyl)pyridin-3-yl]phenyl]carbamoyl]-6,7-dihydro-5H-pyrrolo[1,2-b]pyridazin-1-yl]methyl)-2,3-difluorophenyl]hept-6-ynoate], the “Rate of uptake inhibition (%) (1 µM)” value was 71%.

`COc1cccc(-c2cc(C(F)(F)F)ccc2NC(=O)C2=C(O)[C@@]3(C)CCCN3N(Cc3ccc(OC[C@H]4CCCO4)c(F)c3F)C2=O)c1OC` [Example 159]: the “Rate of uptake inhibition (%) (1 µM)” value came to 89%. To `Cc1cc(NC(=O)C2=C(O)[C@]3(C)CCCN3N(Cc3cccc(F)c3)C2=O)c(C(F)(F)F)o1` [Example 8] belongs 37%; to `COc1cccc(-c2cc(C(F)(F)F)ccc2NC(=O)C2=C(O)[C@@]3(C)CCCN3N(Cc3ccc(OCc4ccncc4)c(F)c3F)C2=O)c1OC` [Example 151, (4aR)-1-[[2,3-Difluoro-4-(pyridin-4-ylmethoxy)phenyl]methyl]-N-[2-(2,3-dimethoxyphenyl)-4-(trifluoromethyl)phenyl]-4-hydroxy-4a-methyl-2-oxo-6,7-dihydro-5H-pyrrolo[1,2-b]pyridazine-3-carboxamide], 92%; to `CCC1(CC)C(O)=C(C(=O)Nc2ccc(Cl)cc2-c2cc(C(F)(F)F)ncn2)C(=O)N(Cc2ccc(OCCN3CCOCC3)c(F)c2F)N1C` [Example 292], 44%. To `CN1N(Cc2ccc(OCCOCCNC(=O)[C@@H](O)[C@H](O)[C@@H](O)[C@@H](O)CO)c(F)c2F)C(=O)C(C(=O)Nc2ccc(C(F)(F)F)cc2-c2cc(C(F)(F)F)ncn2)=C(O)C12CCCC2` [Example 427, 7-[[2,3-Difluoro-4-[2-[2-[[(2S,3R,4S,5S)-2,3,4,5,6-pentahydroxyhexanoyl]amino]ethoxy]ethoxy]phenyl]methyl]-10-hydroxy-6-methyl-8-oxoN-[4-(trifluoromethyl)-2-[6-(trifluoromethyl)pyrimidin-4-yl]phenyl]-6,7-diazaspiro[4.5]dec-9-ene-9-carboxamide] belongs 12%. The figure for `C[C@]12CCCN1N(Cc1ccc(CCCOCCCO)c(F)c1F)C(=O)C(C(=O)Nc1ccc(C(F)(F)F)cc1-c1ccc(C(F)(F)F)nc1)=C2O` [Example 141] is 83%; for `CN1[C@@H](C(C)(C)C)C(O)=C(C(=O)Nc2ccc(Cl)cc2-c2cc(C(F)(F)F)ncn2)C(=O)N1Cc1cccc(F)c1F` [Example 237] it is 51%; for `CN1N(Cc2cccc(F)c2F)C(=O)C(C(=O)Nc2ccc(C(F)(F)F)nc2-c2cncc(C(F)(F)F)c2)=C(O)C1(C)C` [Example 306] it is 58%. For the molecule `CN(C[C@H](O)[C@@H](O)[C@H](O)[C@H](O)CO)C(=O)COCCOCCOCCOCCOc1ccc(CN2C(=O)C(C(=O)Nc3ccc(C(F)(F)F)cc3-c3cc(C(F)(F)F)ncn3)=C(O)C3(CCCC3)N2C)c(F)c1F` [Example 441, 7-[[2,3-Difluoro-4-[2-[2-[2-[2-[2-[methyl-[(2S,3R,4R,5R)-2,3,4,5,6-pentahydroxyhexyl]amino]-2-oxoethoxy]ethoxy]ethoxy]ethoxy]ethoxy]phenyl]methyl]-10-hydroxy-6-methyl-8-oxo-N-[4-(trifluoromethyl)-2-[6-(trifluoromethyl)pyrimidin-4-yl]phenyl]-6,7-diazaspiro[4.5]dec-9-ene-9-carboxamide], the “Rate of uptake inhibition (%) (1 µM)” value is 22%.

For `C[C@]12CCCN1N(Cc1cccc(F)c1F)C(=O)C(C(=O)Nc1ccc(C(F)(F)F)cc1-c1cnc3ccccc3c1)=C2O` [Example 83], the “Rate of uptake inhibition (%) (1 µM)” value was 90%.

On to `C[C@@H]1COC[C@H](C)N1CCOc1ccc(CN2C(=O)C(C(=O)Nc3ccc(C(F)(F)F)cc3-c3cc(C(F)(F)F)ncn3)=C(O)C3(CCCC3)N2C)c(F)c1F` [Example 370], for which the “Rate of uptake inhibition (%) (1 µM)” value is on record as 41%.

`Cc1c(-c2cc(C(F)(F)F)ccc2NC(=O)C2=C(O)[C@H](C(C)(C)C)N(C)N(Cc3ccc(OCCN4CCOCC4)c(F)c3F)C2=O)ncnc1C(F)(F)F` [Example 278]: the “Rate of uptake inhibition (%) (1 µM)” value was 69%. Consider `C[C@]12CCCN1N(Cc1c(F)cccc1F)C(=O)C(C(=O)Nc1ccc(C(F)(F)F)cc1-c1cc(C(F)(F)F)ncn1)=C2O` [Example 212], for which the “Rate of uptake inhibition (%) (1 µM)” value is listed as 98%. On to `Cc1cc(NC(=O)C2=C(O)[C@@H]3CCC(C)(C)N3N(Cc3cccc(F)c3)C2=O)c(C(F)(F)F)o1` [Example 4, (4aS)-1-[(3-Fluorophenyl)methyl]-4-hydroxy-7,7-dimethyl-N-[5-methyl-2-(trifluoromethyl)furan-3-yl]-2-oxo-5,6-dihydro-4aH-pyrrolo[1,2-b]pyridazine-3-carboxamide], for which the “Rate of uptake inhibition (%) (1 µM)” value is reported as 32%. To `CN1N(Cc2ccc(OCC(=O)N3CCOCC3)c(F)c2F)C(=O)C(C(=O)Nc2ccc(C(F)(F)F)cc2-c2cc(C(F)(F)F)ncn2)=C(O)C12CCC2` [Example 336, 8-[[2,3-Difluoro-4-(2-morpholin-2-oxo-ethoxy)phenyl]methyl]-5-hydroxy-9-methyl-7-oxo-N-[4-(trifluoromethyl)-2-[6-(trifluoromethyl)pyrimidin-4yl]phenyl]-8,9-diazaspiro[3.5]non-5-ene-6-carboxamide] belongs 44%. In the case of `CC(C)[C@H]1C(O)=C(C(=O)Nc2ccc(C(F)(F)F)cc2-c2ccc(C(F)(F)F)nc2)C(=O)N(Cc2ccc(OCCN3CCOCC3)c(F)c2F)N1C` [Example 280], the “Rate of uptake inhibition (%) (1 µM)” value worked out at 50%. The figure for `CN1N(Cc2ccc(OCCCCOC[C@H](O)CO)c(F)c2F)C(=O)C(C(=O)Nc2ccc(C(F)(F)F)cc2-c2cc(C(F)(F)F)ncn2)=C(O)C12CCC2` [Example 390] is 58%. The figure for `C[C@]12CCCN1N(Cc1cccc(F)c1F)C(=O)C(C(=O)Nc1ccc(C(F)(F)F)cc1-c1cnc(Br)cn1)=C2O` [Example 73] is 74%; for `C[C@]12CCCN1N(Cc1ccc(Cl)cc1)C(=O)C(C(=O)Nc1cc(F)c(Br)c(F)c1)=C2O` [Example 223] it is 77%; for `Cc1cccc(CN2C(=O)C(C(=O)Nc3ccc(C(F)(F)F)cc3-c3ccc(C(F)(F)F)nc3)=C(O)[C@@]3(C)CCCN23)c1F` [Example 205] it is 86%.

With `C[C@]12CCCN1N(Cc1cc(F)cc(F)c1)C(=O)C(C(=O)Nc1cc(F)c(Br)c(F)c1)=C2O` [Example 190], the “Rate of uptake inhibition (%) (1 µM)” value was determined as 84%. For `CN(CCOc1ccc(CN2C(=O)C(C(=O)Nc3ccc(C(F)(F)F)cc3-c3cc(C(F)(F)F)ncn3)=C(O)C3(CCC3)N2C)c(F)c1F)C1COC1` [Example 402, 6-(2,3-Difluoro-4-(2-(methyl(oxetan-3-yl)amino)ethoxy)benzyl)-9-hydroxy-5-methyl-7-oxo-N-(4-(trifluorometyl)-2-(6-(trifluoromtthyl)pyrimidin-4-yl)phenyl)-5,6-diazaspiro[3.5]non-8-ene-8-carboxamide], the “Rate of uptake inhibition (%) (1 µM)” value worked out at 54%. As to `CN1[C@@H](C(C)(C)C)C(O)=C(C(=O)Nc2ccc(C(F)(F)F)cc2-c2ccc(C(F)(F)F)nc2)C(=O)N1Cc1cccc(F)c1F` [Example 238], the “Rate of uptake inhibition (%) (1 µM)” value stood at 47%. Turning to `CN1N(Cc2cccc(F)c2F)C(=O)C(C(=O)Nc2ccc(Cl)cc2-c2cc(C(F)(F)F)ncn2)=C(O)C12CCCC2` [Example 261], the “Rate of uptake inhibition (%) (1 µM)” value worked out at 77%. To `C[C@]12CCCN1N(Cc1cccc(F)c1F)C(=O)C(C(=O)Nc1ccc(C(F)(F)F)cc1-c1cnc(N3CC4(COC4)C3)c(C#N)c1)=C2O` [Example 111, (4aR)-N-[2-[5-Cyano-6-(2-oxa-6-azaspiro[3.3]heptan-6-yl)pyridin-3-yl]-4-(trifluoromethyl)phenyl]-1-[(2,3-difluorophenyl)methyl]-4-hydroxy-4a-methyl-2-oxo-6,7-dihydro-5H-pvrrolo[1,2-b]pyridazine-3-carboxamide] belongs 56%; to `CN(C[C@H](O)[C@@H](O)[C@H](O)[C@H](O)CO)C(=O)CCOCCOCCOc1ccc(CN2C(=O)C(C(=O)Nc3ccc(C(F)(F)F)cc3-c3cc(C(F)(F)F)ncn3)=C(O)C3(CCCC3)N2C)c(F)c1F` [Example 422], 29%; to `CSc1ccc(-c2cc(C(F)(F)F)ccc2NC(=O)C2=C(O)C3(CCCC3)N(C)N(Cc3ccc(OCCN4CCOCC4)c(F)c3F)C2=O)cn1` [Example 289], 55%. To `C[C@]12CCCN1N(Cc1cccc(F)c1F)C(=O)C(C(=O)Nc1ccc(Cl)cc1-c1ccc(C(F)(F)F)nc1)=C2O` [Example 86] belongs 83%; to `COc1cc(-c2cc(C(F)(F)F)ccc2NC(=O)C2=C(O)C(C)(C)N(C)N(Cc3cccc(F)c3F)C2=O)cnc1C#N` [Example 302], 79%.

Turning to `CN(CCOCCC(=O)NCC(O)CO)CCOc1ccc(CN2C(=O)C(C(=O)Nc3ccc(C(F)(F)F)cc3-c3cc(C(F)(F)F)ncn3)=C(O)C3(CCCC3)N2C)c(F)c1F` (stereo not shown) [Example 426], the “Rate of uptake inhibition (%) (1 µM)” value turned out to be 24%. As to `C[C@]12CCCN1N(Cc1cccc(F)c1)C(=O)C(C(=O)Nc1ccc(C(F)(F)F)cc1-c1ccc(C(F)(F)F)nc1)=C2O` [Example 206], the “Rate of uptake inhibition (%) (1 µM)” value was 76%. To `C[C@]12CCCN1N(Cc1ccc(C#CCN3CCCC3=O)c(F)c1F)C(=O)C(C(=O)Nc1ccc(Br)c(F)c1)=C2O` [Example 131] belongs 87%.
